Laboratory results as given in BigSolDB 2.1.

A solubility (mole fraction) (in transcutol, 298.15 K) of 0.0423, a solubility (mole fraction) (in transcutol, 308.15 K) of 0.0468 and a solubility (mole fraction) (in transcutol, 318.15 K) of 0.0514 were found for O=C(NNC(=S)Nc1ccc(Cl)cc1)c1ccncc1 in this work. The solubility (mole fraction) (in transcutol, 328.15 K) was 0.0565, the solubility (mole fraction) (in transcutol, 338.15 K) was 0.0607 and the solubility (mole fraction) (in water, 298.15 K) was 5.17e-07. For the same compound, the solubility (mole fraction) (in water, 308.15 K) was 5.93e-07, the solubility (mole fraction) (in water, 318.15 K) was 7.05e-07 and the solubility (mole fraction) (in water, 328.15 K) was 8.28e-07. For the same compound, the solubility (mole fraction) (in water, 338.15 K) was 9.75e-07.
